Laboratory results as given in ChEMBL document CHEMBL1201862, “PubChem BioAssay data set” (2004).
Calls of active or inactive are those of the source.

Key:
[1] = inhibitors of firefly luciferase expression or activity, dose response, H4 neuroglioma cells, luminescence (AID 1990); type: functional, cell-based
[2] = tested on: Streptococcus sp. 'group A'; assay: growth inhibition of control SK(-) GAS strain, dose response, counter-screen for streptokinase expression inhibitor project, luminescence, kanamycin, BacTiterGlo, confirmation (AID 1900); type: functional, organism-based
[3] = Luminescence Cell-Based Dose Response HTS to Identify Inhibitors of 5'UTR Stem-Loop Driven Prion Protein mRNA Translation in H4 Neuroglioblastoma Cells. [Related pubchem assays: 1827 (Project Summary), 1813 (Primary HTS)]; type: functional
[4] = inhibitors of SNCA 5'UTR-driven reporter translation, confirmation, H4 neuroglioma cells, luminescence (AID 1988); type: functional, cell-based
Streptokinase A = target: T1, Streptokinase A (Streptococcus pyogenes serotype M1, UniProt P10520); assay: S. pyogenes streptokinase expression inhibitors, potency, dose response, plasminogen activation absorbance, OD405 (AID 1914); type: functional, Streptococcus pyogenes M1 GAS;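 further: secreted streptokinase activity via plasminogen activation per viability signal from cell pellet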
T1 sequence (P10520 whole entry): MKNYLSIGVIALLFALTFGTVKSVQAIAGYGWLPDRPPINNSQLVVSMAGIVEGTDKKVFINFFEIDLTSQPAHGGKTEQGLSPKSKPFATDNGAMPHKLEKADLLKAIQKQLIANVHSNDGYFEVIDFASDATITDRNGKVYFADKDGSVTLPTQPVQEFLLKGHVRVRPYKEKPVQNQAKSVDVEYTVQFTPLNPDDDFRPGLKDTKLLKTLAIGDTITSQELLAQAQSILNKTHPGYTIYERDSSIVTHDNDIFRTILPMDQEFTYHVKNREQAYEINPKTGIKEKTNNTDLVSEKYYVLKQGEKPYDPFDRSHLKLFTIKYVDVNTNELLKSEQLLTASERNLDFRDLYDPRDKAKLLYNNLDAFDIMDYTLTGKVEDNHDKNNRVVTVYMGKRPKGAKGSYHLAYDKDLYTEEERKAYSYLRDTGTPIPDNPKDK

[5] = inhibitors of intracellular T. cruzi replication, confirmation, NIH3T3 host cells, beta-gal luminescence (AID 2044); type: functional, cell-based;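 further: intracellular parasites grown in NIH/3T3 mouse fibroblasts as host cells; luminescent beta-galactosidase reporter signal from transgenic T. cruzi replicating inside host cells; inhibitors lower the luminescence signal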
[6] = growth suppression of PTEN-null colon cells, dose response, cell-based, HCT116 PTEN knockout (AID 1047); type: functional;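 further: HCT116 colon tumor cells with PTEN knocked out; cells exposed to compound for 60 hours before readout; potency for loss of cell viability measured by luminescence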
[7] = cytotoxicity toward NIH3T3 fibroblasts, dose response, counter-screen, cell-based, ATP luminescence, mouse fibroblasts (AID 2010); type: functional;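 further: cells exposed to compound for about 90 hours before reading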
[8] = growth suppression of beta-catenin-knockout colon cells, dose response, cell-based, HCT116, human colon tumor (AID 1045); type: functional;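 further: HCT116 colon tumor cells with beta catenin knocked out; cells exposed to compound for 60 hours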
Streptococcus = assay: Group A Streptococcus viability loss, dose response, counter-screen for streptokinase expression inhibitor project, luminescence, BacTiterGlo (AID 1915); type: functional, organism-based;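 further: potency for reduction of bacterial viability or growth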
HEK293 [9] = assay: inhibitors of LMP1-driven NF-kB reporter, dose response, cell-based, HEK293, luciferase, cherry-pick (AID 588343); type: functional; conditions: Homo sapiens
Insulin-degrading enzyme [10] = target: T2, Insulin-degrading enzyme (Homo sapiens, UniProt P14735); assay: activators of recombinant IDE enzyme, dose response, counter-screen for IDE activator project, biochemical, fluorescence polarization (AID 588681)
T2 sequence (P14735 whole entry): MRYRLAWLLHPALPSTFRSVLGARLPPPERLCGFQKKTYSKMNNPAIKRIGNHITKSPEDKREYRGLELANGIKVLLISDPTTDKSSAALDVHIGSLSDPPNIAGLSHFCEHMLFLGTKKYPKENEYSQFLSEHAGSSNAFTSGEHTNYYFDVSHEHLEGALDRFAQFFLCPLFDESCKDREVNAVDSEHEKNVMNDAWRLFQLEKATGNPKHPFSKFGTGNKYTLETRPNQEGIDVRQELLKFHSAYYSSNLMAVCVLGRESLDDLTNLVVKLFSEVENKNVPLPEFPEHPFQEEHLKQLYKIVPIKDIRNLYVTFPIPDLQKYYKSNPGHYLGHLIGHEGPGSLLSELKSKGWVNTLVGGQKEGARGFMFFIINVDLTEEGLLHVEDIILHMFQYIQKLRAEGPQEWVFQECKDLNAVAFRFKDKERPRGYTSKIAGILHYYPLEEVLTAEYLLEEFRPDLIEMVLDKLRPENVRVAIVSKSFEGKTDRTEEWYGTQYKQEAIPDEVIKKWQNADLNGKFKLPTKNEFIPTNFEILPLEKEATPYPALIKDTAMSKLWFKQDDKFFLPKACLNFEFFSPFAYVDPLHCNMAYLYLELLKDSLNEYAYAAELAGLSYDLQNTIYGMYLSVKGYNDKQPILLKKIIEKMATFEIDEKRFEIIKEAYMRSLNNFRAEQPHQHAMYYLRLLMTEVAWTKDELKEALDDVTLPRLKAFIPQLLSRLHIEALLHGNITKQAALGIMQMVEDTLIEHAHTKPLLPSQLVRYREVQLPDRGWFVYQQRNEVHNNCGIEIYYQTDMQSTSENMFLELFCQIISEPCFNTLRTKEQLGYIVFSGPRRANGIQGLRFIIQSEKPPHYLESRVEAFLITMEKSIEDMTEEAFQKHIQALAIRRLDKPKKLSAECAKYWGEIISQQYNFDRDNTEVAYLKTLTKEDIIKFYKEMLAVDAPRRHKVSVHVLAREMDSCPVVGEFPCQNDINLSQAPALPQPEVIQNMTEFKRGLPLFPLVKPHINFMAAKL

Insulin-degrading enzyme [11] = target: T2, Insulin-degrading enzyme; assay: activators of endogenous IDE in HEK cells, dose response, cell-based, fluorescence polarization (AID 588439); type: functional
INS1 = assay: beta cell apoptosis inhibitors, cytokine rescue, dose response, luminescence, retest (AID 449756); type: functional, cell-based; conditions: Rattus norvegicus;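 further: cell death triggered by IL-1 beta plus TNF-alpha plus IFN-gamma mixture; protective hits raise ATP signal compared with cytokine alone wells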
HEK293 [12] = assay: HEK cell cytotoxicity by LDH release, dose response, cytotoxicity control for IDE activator project, fluorescence, HEK cells (AID 588440); type: functional, cell-based; conditions: Homo sapiens;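 further: cytotoxicity by LDH release measuring loss of membrane integrity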
HEK293 [13] = assay: optical interference in Abeta FP readout, dose response, artefact control for IDE activator project, biochemical, fluorescence polarization (AID 588442); type: functional, cell-based; conditions: Homo sapiens
[14] = target: Beta-2 adrenergic receptor (Homo sapiens, UniProt P07550); assay: beta2AR agonists driving receptor internalization, dose response, cell-based, FAP fluorogen, flow cytometry, cherry pick 1 (AID 588763); type: functional
[15] = Shn3 3'UTR reporter inhibitors, dose response, cell-based, Clone20 osteoblasts, firefly luciferase, cherry-picked (AID 624132); type: functional;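 further: firefly luciferase luminescence from reporter carrying the Shn3 3'UTR in osteoblasts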
[16] = HepG2 cell cytotoxicity, dose response, cytotoxicity control for Shn3 inhibitor project, CellTiter-Glo, cherry-picked (AID 624134); type: functional, cell-based
[17] = control 3'UTR Renilla luciferase suppression, dose response, counter-screen for Shn3 inhibitor project, cell-based, Clone20-Shn3RL, cherry-picked (AID 624133); type: functional
HEK293 [18] = assay: NOD1 signaling inhibitors, primary screen, cell-based, luminescence, uHTS (AID 1578); type: functional; conditions: Homo sapiens
HEK293 [19] = assay: cells; type: functional, cell-based; conditions: Homo sapiens
HEK293 [20] = assay: cells; type: functional, cell-based; conditions: Homo sapiens; remark: listed apart in the source
[21] = target: Nucleotide-binding oligomerization domain-containing protein 2 (Homo sapiens, UniProt Q9HC29); assay: NOD2 signaling inhibitors, cell-based, luminescence, uHTS, HEK293 (AID 1566); type: functional
HEK293 [22] = assay: NOD2 signaling inhibitors in MDP-stimulated cells, cell-based, uHTS, luminescence (AID 2001); type: functional; conditions: Homo sapiens
HEK293 [23] = assay: cells; type: functional, cell-based; conditions: Homo sapiens; remark: listed apart in the source
Protein Wnt-3a = Protein Wnt-3a (Mus musculus, UniProt P27467); assay: Wnt3a-driven reporter signaling inhibition, dose response, selectivity assay for Gli-SUFU antagonist project, Wnt-LIGHT cells, luminescence (AID 651570); type: functional; conditions: read-out: IC50_Mean;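 further: Wnt-LIGHT reporter cells stimulated with conditioned medium from Wnt3a-producing cells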
[24] = target: Adenosylmethionine-8-amino-7-oxononanoate aminotransferase (Mycobacterium tuberculosis, UniProt P9WQ81); assay: Mycobacterium tuberculosis BioA enzyme inhibitor Measured in Biochemical System Using Plate Reader - 2163-02_Inhibitor_Dose_CherryPick_Activity.; type: functional, Mycobacterium tuberculosis UT205
Beta-lactamase [25] = target: Beta-lactamase (Salmonella choleraesuis (strain SC-B67), UniProt Q5J463); assay: Epi-absorbance-based counterscreen for selective VIM-2 inhibitors: dose response biochemical high throughput screening assay to identify inhibitors of TEM-1 serine-beta-lactamase.
Beta-lactamase [26] = target: T3, Beta-lactamase (Pseudomonas aeruginosa, UniProt Q79MP6); assay: IMP-1 metallo-beta-lactamase inhibitors, dose response, selectivity assay for VIM-2 inhibitor project, biochemical, epi-absorbance (AID 1920)
Beta-lactamase [27] = target: T3, Beta-lactamase; assay: […] counterscreen for selective VIM-2 inhibitors: dose response biochemical high throughput screening assay to identify inhibitors of IMP-1 metallo-beta-lactamase.

T3 sequence (Q79MP6 whole entry): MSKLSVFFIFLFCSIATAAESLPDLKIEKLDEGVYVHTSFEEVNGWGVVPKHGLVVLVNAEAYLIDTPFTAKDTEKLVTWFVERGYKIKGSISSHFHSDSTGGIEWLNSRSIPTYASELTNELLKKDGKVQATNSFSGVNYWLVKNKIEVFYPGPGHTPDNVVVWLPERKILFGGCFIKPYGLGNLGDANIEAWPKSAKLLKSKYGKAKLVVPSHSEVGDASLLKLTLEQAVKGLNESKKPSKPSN
Adenosylmethionine-8-amino-7-oxononanoate aminotransferase, sequence (P9WQ81 whole entry): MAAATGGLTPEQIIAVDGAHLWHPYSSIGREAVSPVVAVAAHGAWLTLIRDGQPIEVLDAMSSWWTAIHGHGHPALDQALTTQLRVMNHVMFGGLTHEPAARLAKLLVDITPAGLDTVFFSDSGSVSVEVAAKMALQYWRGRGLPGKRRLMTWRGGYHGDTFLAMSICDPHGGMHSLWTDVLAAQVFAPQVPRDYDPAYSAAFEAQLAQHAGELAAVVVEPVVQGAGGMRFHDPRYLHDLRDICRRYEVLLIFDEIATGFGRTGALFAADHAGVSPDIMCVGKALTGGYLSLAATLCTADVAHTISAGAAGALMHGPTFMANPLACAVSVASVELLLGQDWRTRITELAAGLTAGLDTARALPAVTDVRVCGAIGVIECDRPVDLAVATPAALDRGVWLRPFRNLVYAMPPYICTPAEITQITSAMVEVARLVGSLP
Protein Wnt-3a, sequence (P27467 whole entry): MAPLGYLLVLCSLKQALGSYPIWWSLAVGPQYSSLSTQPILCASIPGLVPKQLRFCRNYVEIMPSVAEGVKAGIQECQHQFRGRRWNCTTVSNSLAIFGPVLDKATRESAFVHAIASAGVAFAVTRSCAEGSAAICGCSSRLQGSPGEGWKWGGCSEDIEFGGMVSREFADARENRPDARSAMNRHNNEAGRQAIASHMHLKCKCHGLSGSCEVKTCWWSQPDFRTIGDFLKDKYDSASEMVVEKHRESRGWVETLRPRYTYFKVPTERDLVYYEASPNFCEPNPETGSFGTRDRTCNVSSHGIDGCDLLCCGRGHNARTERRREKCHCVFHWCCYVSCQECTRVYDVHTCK
Nucleotide-binding oligomerization domain-containing protein 2, sequence (Q9HC29 whole entry, the tested form may be a part): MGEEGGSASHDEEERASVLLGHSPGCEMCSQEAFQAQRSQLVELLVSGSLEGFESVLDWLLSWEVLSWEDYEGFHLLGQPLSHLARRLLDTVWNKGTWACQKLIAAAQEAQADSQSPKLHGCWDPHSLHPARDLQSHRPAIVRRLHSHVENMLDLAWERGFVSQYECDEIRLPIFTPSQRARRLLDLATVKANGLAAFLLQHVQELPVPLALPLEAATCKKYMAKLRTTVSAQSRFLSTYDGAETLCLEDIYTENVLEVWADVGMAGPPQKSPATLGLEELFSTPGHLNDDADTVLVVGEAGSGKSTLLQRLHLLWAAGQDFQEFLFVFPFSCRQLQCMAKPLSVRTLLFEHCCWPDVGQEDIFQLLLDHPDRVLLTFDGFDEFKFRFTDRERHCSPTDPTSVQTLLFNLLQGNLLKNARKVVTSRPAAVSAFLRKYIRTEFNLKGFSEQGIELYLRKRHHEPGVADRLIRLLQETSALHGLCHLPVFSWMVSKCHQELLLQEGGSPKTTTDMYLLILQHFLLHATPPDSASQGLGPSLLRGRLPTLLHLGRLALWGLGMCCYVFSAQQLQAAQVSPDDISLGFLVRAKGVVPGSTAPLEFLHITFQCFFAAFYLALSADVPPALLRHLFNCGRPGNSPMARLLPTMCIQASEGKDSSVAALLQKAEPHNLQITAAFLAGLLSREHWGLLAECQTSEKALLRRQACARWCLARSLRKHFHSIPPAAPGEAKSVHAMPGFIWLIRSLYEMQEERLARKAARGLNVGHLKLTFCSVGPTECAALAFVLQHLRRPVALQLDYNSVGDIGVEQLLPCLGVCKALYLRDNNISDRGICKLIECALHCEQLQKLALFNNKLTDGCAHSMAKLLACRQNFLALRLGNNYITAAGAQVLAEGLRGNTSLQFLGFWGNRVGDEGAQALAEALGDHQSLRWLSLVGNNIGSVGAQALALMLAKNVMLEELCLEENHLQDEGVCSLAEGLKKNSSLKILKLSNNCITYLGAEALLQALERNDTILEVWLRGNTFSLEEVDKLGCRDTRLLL
Beta-lactamase (Salmonella choleraesuis (strain SC-B67), UniProt Q5J463), sequence (Q5J463 whole entry): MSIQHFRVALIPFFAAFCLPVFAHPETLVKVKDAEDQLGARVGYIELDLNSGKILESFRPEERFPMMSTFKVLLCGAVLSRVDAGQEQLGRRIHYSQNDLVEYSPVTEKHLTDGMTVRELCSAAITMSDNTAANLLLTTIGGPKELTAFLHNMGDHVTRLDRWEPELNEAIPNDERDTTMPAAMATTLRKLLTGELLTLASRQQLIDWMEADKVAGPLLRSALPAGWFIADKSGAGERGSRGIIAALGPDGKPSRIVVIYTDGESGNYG
Beta-2 adrenergic receptor, sequence (P07550 whole entry): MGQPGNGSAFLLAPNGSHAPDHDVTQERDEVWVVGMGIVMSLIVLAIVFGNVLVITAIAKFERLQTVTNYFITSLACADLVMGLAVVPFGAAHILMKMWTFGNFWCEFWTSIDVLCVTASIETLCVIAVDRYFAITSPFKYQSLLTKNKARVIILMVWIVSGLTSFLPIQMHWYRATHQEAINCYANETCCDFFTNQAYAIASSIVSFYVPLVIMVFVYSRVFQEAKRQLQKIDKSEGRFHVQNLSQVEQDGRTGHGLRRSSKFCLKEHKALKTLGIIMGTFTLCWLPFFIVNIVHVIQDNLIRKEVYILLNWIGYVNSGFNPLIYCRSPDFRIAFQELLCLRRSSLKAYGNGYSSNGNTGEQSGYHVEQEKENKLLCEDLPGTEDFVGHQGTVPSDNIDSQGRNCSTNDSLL

COc1ccc(Cn2c(SCc3cc(C)ccc3C)nc3cc(OC)c(OC)cc3c2=N)cc1
EC50 [1]: 24.1 µM (active) | EC50 [2]: 5.16 µM (active) | EC50 [3]: 30.7 µM (active) | EC50 [4]: 10.8 µM (active) | EC50 (Streptokinase A): 6.67 µM (active) | EC50 [5]: 1.19 µM (active) | EC50 [6]: 2.47 µM (active) | EC50 [7]: 9.83 µM (active) | EC50 [8]: 1.88 µM (active) | EC50 (Streptococcus): 8.37 µM (active) | AC50 (HEK293 [9]): 7.9 µM (active) | EC50 (Insulin-degrading enzyme [10]): > 54.7 µM (inactive) | EC50 (Insulin-degrading enzyme [11]): 6.95 µM (active) | AC50 (INS1): 3.48 µM (active) | IC50 (HEK293 [12]): 10.7 µM (inactive) | EC50 (HEK293 [13]): > 56 µM (inactive) | EC50 [14]: 83.4 µM (inactive) | AC50 [15]: 7.91 µM (active) | AC50 [16]: 11.2 µM (active) | AC50 [17]: 9.31 µM (active)

C=CCn1c(O)c(N=NC(=S)Nc2cccc(C)c2)c2ccccc21
EC50 (HEK293 [18]): 1.09 µM (active) | IC50 (HEK293 [19]): 2.97 µM (active) | IC50 (HEK293 [20]): > 20 µM (inactive) | EC50 [21]: 16.3 µM (active) | IC50 (HEK293 [22]): 1.18 µM (active) | EC50 [5]: 0.558 µM (active) | IC50 (HEK293 [23]): > 20 µM (inactive) | EC50 [7]: 3.44 µM (active) | AC50 (HEK293 [9]): 1.46 µM (active) | IC50 (Protein Wnt-3a): 29.2 µM (inactive)

O=C(Nc1cccnc1)c1ccc(N2CCOCC2)c([N+](=O)[O-])c1
AC50 [24]: 6.8 µM (active)

Cc1ccc(-n2c(-c3nn(C)c(C)c3Cl)n[nH]c2=S)cc1
IC50 (Beta-lactamase [25]): > 59.6 µM (inactive) | IC50 (Beta-lactamase [26]): > 59.6 µM (inactive) | IC50 (Beta-lactamase [27]): > 59.6 µM (inactive)

Cc1nn(CCC(=O)O)c2nc(-c3cccnc3)cc(C(F)(F)F)c12
AC50 [24]: 10.2 µM (active)
